Read-outs that look alike come from different tables or passages of the source. Marks after values point to notes of the source that are not given here.
Experiments:
[1] = Liver microsome stability assessment; format: in vitro ADME, rat; settings: LCMS analysis of liver microsome assay mixtures
[2] = scale 0–6, cited from earlier work

Structure (SMILES) | major metabolic route [1] | CNS MPO score [2] | CNS MPO score ([2]; listed as gabapentin)
CNCCCOc1ccc(S(=O)(=O)N2c3ccccc3Oc3ccccc32)cc1.O=C(O)C(F)(F)F [Compound 4a, 3-(4-((10H-Phenoxazin-10-yl)sulfonyl)phenoxy)-N-methylpropan-1-amine.TFA] | demethylation |  | 
CN(C)CCCOc1ccc(S(=O)(=O)N2c3ccccc3Oc3ccccc32)cc1.O=C(O)C(F)(F)F [Compound 4b, 3-(4-((10H-Phenoxazin-10-yl)sulfonyl)phenoxy)-N,N-dimethylpropan-1-amine.TFA] | demethylation |  | 
NCC1(CC(=O)O)CCCCC1 [Gabapentin] |  | 4.2 ^a | 4.2
CN(C)CCCN1c2ccccc2CCc2ccc(Cl)cc21 [clomipramine] |  | 3.1 | 
CNCCC=C1c2ccccc2CCc2ccccc21 [nortriptyline] |  | 3.3 | 
COc1cccc(C2(O)CCCCC2CN(C)C)c1 (stereo not shown) [tramadol] |  | 4.6 | 
